Results published in patent publication US7041687B2, “Indazole compounds useful as protein kinase inhibitors” (Vertex Pharmaceuticals Incorporated, priority 2002, dated 2006).

Columns and labels:
Type in all cases: biochemical
PDK-1 = target: T1, PDK-1 (Homo sapiens, UniProt O15530); experiment: PDK-1 inhibition assay (radioactive-phosphate incorporation); conditions: 40 μM ATP, 65 μM PDKtide, 25 nM PDK-1, 30° C.
T1 sequence (O15530 1-556): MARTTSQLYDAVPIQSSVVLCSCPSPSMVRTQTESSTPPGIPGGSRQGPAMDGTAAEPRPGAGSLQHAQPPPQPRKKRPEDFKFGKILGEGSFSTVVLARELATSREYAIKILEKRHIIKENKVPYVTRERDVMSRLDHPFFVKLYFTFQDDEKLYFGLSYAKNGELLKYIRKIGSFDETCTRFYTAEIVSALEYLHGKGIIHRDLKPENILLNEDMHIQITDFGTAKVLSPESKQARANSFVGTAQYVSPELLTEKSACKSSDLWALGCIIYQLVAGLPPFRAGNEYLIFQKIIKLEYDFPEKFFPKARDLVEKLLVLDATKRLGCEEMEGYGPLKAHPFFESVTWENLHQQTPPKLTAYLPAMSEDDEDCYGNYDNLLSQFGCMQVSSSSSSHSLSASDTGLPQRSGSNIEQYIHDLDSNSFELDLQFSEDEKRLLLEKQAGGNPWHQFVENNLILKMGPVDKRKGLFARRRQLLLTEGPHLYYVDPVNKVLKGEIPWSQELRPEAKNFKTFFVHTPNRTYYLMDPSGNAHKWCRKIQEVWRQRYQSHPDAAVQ

AKT-3 = AKT-3 (Homo sapiens, UniProt Q9Y243); experiment: AKT-3 inhibition assay (standard coupled enzyme assay); conditions: 170 μM ATP, 200 μM peptide, 45 nM AKT, 30° C.
PKA = PKA (Homo sapiens, UniProt P17612); experiment: PKA inhibition assay (standard coupled enzyme assay); conditions: 50 μM ATP, 80 μM Kemptide, 18 nM PKA, 30° C.
Protocol: Compounds were screened for their ability to inhibit PKA using a standard coupled enzyme assay (Fox et al., Protein Sci., (1998) 7, 2249). Assays were carried out in a mixture of 100 mM HEPES 7.5, 10 mM MgCl2, 25 mM NaCl, 1 mM DTT and 3% DMSO. Final substrate concentrations in the assay were 50 μM ATP (Sigma Chemicals) and 80 μM peptide (Kemptide, American Peptide, Sunnyvale, Calif.). Assays were carried out at 30° C. and 18 nM PKA. Final concentrations of the components of the coupled enzyme system were 2.5 mM phosphoenolpyruvate, 300 μM NADH, 30 μg/ml pyruvate kinase and 10 μg/ml lactate dehydrogenase.
An assay stock buffer solution was prepared containing all of the reagents listed above, with the exception of ATP, and the test compound of interest. 55 μl of the stock solution was placed in a 96 well plate followed by addition of 2 μl of DMSO stock containing serial dilutions of the test compound (typically starting from a final concentration of 5 μM). The plate was preincubated for 10 minutes at 30° C. and the reaction initiated by addition of 5 μl of ATP (final concentration 50 μM). Initial reaction rates were determined with a Molecular Devices SpectraMax Plus plate reader over a 15 minute time course. IC50 and Ki data were calculated from non-linear regression analysis using the Prism software package (GraphPad Prism version 3.0a for Macintosh, GraphPad Software, San Diego Calif., USA).

Chain of AKT-3 (Q9Y243 whole entry): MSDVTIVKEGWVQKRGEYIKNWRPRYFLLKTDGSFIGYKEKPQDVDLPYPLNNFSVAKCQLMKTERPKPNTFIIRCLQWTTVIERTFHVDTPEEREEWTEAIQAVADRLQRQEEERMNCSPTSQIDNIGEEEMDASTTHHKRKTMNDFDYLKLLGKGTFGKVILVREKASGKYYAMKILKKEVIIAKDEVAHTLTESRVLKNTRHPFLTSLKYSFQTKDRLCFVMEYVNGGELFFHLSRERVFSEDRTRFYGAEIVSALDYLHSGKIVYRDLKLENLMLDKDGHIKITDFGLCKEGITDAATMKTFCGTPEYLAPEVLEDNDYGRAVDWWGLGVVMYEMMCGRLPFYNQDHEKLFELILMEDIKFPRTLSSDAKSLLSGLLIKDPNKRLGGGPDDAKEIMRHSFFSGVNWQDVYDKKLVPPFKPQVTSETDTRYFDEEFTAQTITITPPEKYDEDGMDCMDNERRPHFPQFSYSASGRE

Ki (PDK-1)	Ki (AKT-3)	Ki (PKA)	Structure (SMILES)
< 1000 nM	< 1000 nM	< 1000 nM	NCCC(C(=O)Nc1ccc2[nH]nc(Cl)c2c1)c1ccc(Cl)c(Cl)c1 (stereo not drawn) [Compound I-121]
1000 to 3000 nM	< 1000 nM	< 1000 nM	NCCC(C(=O)Nc1ccc2[nH]nc(Br)c2c1)c1ccc(Cl)c(Cl)c1 (stereo not drawn) [Compound I-122]
< 1000 nM	1000 to 10000 nM	< 1000 nM	NCCC(C(=O)Nc1ccc2[nH]nc(CCc3ccccc3)c2c1)c1ccc(Cl)c(Cl)c1 (stereo not drawn) [Compound I-123]
1000 to 3000 nM	< 1000 nM	< 1000 nM	C#Cc1n[nH]c2ccc(NC(=O)C(CCN)c3ccc(Cl)c(Cl)c3)cc12 (stereo not drawn) [Compound I-124]
< 1000 nM	< 1000 nM	< 1000 nM	Cc1n[nH]c2ccc(NC(=O)[C@H](CCN)c3cccc(Cl)c3F)cc12 [Compound I-125]
< 1000 nM	< 1000 nM	< 1000 nM	Cc1n[nH]c2ccc(NC(=O)[C@@H](CCN)c3cccc(Cl)c3F)cc12 [Compound I-126]
1000 to 3000 nM	< 1000 nM	< 1000 nM	Cc1n[nH]c2ccc(NC(=O)C(CCN)c3cccc(Cl)n3)cc12 (stereo not drawn) [Compound I-129]
< 1000 nM	< 1000 nM	< 1000 nM	COc1c(C(CCN)C(=O)Nc2ccc3[nH]nc(C)c3c2)ccc(Cl)c1Cl (stereo not drawn) [Compound I-130]
> 3000 nM	< 1000 nM	< 1000 nM	Cc1cccc(C(CCN)C(=O)Nc2ccc3[nH]nc(C)c3c2)c1 (stereo not drawn) [Compound I-131]
< 1000 nM	< 1000 nM	< 1000 nM	Cc1n[nH]c2ccc(NC(=O)C(CCN)c3ccc(Cl)cc3F)cc12 (stereo not drawn) [Compound I-132]
> 3000 nM	< 1000 nM	< 1000 nM	Cc1n[nH]c2ccc(NC(=O)C(CCN)c3ccc(Cl)c(Cl)c3O)cc12 (stereo not drawn) [Compound I-133]
> 3000 nM	< 1000 nM	< 1000 nM	CNc1n[nH]c2ccc(NC(=O)C(CCN)c3ccc(Cl)c(Cl)c3)cc12 (stereo not drawn) [Compound I-134]
> 3000 nM	< 1000 nM	< 1000 nM	CCc1cccc(C(CCN)C(=O)Nc2ccc3[nH]nc(C)c3c2)c1 (stereo not drawn) [Compound I-135]
< 1000 nM	< 1000 nM	< 1000 nM	Cc1n[nH]c2ccc(NC(=O)C(CCN)c3ccc(Cl)c(Cl)c3F)cc12 (stereo not drawn) [Compound I-136]
< 1000 nM	< 1000 nM	< 1000 nM	NCCC(C(=O)Nc1ccc2[nH]nc(N)c2c1)c1ccc(Cl)c(Cl)c1 (stereo not drawn) [Compound I-138]
< 1000 nM	< 1000 nM	< 1000 nM	Cc1n[nH]c2ccc(NC(=O)C(CCN)c3ccc(Cl)s3)cc12 (stereo not drawn) [Compound I-139]
1000 to 3000 nM	< 1000 nM	< 1000 nM	CC(=O)Nc1n[nH]c2ccc(NC(=O)C(CCN)c3ccc(Cl)c(Cl)c3)cc12 (stereo not drawn) [Compound I-140]
< 1000 nM	< 1000 nM	< 1000 nM	NCCC(C(=O)Nc1ccc2[nH]nc(NC(=O)c3ccccc3)c2c1)c1ccc(Cl)c(Cl)c1 (stereo not drawn) [Compound I-141]
> 3000 nM	< 1000 nM	< 1000 nM	NCCC(C(=O)Nc1cc(Br)c2[nH]nc(Cl)c2c1)c1ccc(Cl)c(Cl)c1 (stereo not drawn) [Compound I-145]
1000 to 3000 nM	< 1000 nM	< 1000 nM	Cc1cc(NC(=O)C(CCN)c2ccc(Cl)c(Cl)c2)cc2cn[nH]c12 (stereo not drawn) [Compound I-147]
> 3000 nM	< 1000 nM	< 1000 nM	CNCCC(C(=O)Nc1ccc2[nH]ncc2c1)c1ccc(Cl)c(Cl)c1 (stereo not drawn) [Compound I-153]
> 3000 nM	< 1000 nM	< 1000 nM	NCCCC(C(=O)Nc1ccc2[nH]ncc2c1)c1ccc(Cl)c(Cl)c1 (stereo not drawn) [Compound I-155]
1000 to 3000 nM	1000 to 10000 nM	< 1000 nM	NCCC(C(=O)Nc1ccc2[nH]nc(NCc3ccccc3)c2c1)c1ccc(Cl)c(Cl)c1 (stereo not drawn) [Compound I-158]

Structure (SMILES)	Ki (PDK-1)	Ki (AKT-3)	Ki (PKA)
O=C(Nc1ccc2[nH]ncc2c1)C1(c2ccccc2)CCNCC1 [Compound I-156]	> 3000 nM	1000 to 10000 nM	< 1000 nM
